The results in this text go back to patent US20070111216A1 (priority 2004, published 2007).

What all share (type): biochemical
Assay [1] addresses T1, E. coli RNA polymerase Holoenzyme (Escherichia coli, UniProt P0A8T7+P0A8V2).
T1 construct: purchased EPICENTRE
The experiment in a line: Rolling circle transcription on circular 38mer ssDNA, products visualized by agarose gel electrophoresis. Particulars: 37° C. for 2 hours, 0.5 mM each NTP, concentration of inhibitor not printed (FIG. 2). The protocol: (§1) A single-stranded circularized 38mer DNA molecule having the same sequence as the circular 38mer used in Example 2 (Sequence I.D. No. 2) was obtained.
(§2) A reaction mixture was prepared comprising 5 pmoles of the circularized 38mer DNA molecule, 1 unit of E. coli RNA Polymerase Holoenzyme (EPICENTRE) or of soy germ RNA polymerase II, 0.5 mM of each NTP and a reaction buffer. The reaction mixture was incubated at 37° C. for 2 hours in the presence or absence of rifampicin or α-amanitin. The reaction products were visualized by agarose gel electrophoresis.

Assay [2] concerns soy germ RNA polymerase II. The assay is described as above. Particulars: 37° C. for 2 hours, 0.5 mM each NTP, concentration of inhibitor not printed (FIG. 2). The procedure: as §1, §2
Assay [3] concerns the target T2, E. coli RNA Polymerase Core Enzyme (Escherichia coli, UniProt P0A8T7+P0A8V2).
T2 construct: purchased EPICENTRE
The experiment in a line: Rolling circle transcription on circular 45mer ssDNA monitored in real time (SYBR Gold) and by gel electrophoresis. Particulars: 20 μg/ml α-amanitin, 10 min preincubation at 37° C., 0.5 mM each NTP, about 1.5 hours (FIG. 4).
Method: A single-stranded circularized 45mer DNA molecule having the same sequence as the circular 45mer used in Example 1 (Sequence I.D. No. 1) was obtained.
A reaction mixture was prepared containing 0.5 units of E. coli RNA Polymerase Core Enzyme, and a reaction buffer. The reaction mixture was incubated in the presence of 1 μM rifampicin, 20 U TAGETIN (Epicentre Biotechnologies), or 20 μg/ml α-amanitin for 10 min at 37° C. Subsequently, 0.8 pmole of the circularized 45mer DNA oligomer were added to the reaction mixture followed by incubation for 5 min at 37° C. Then SYBR Gold (Molecular Probes), which had been diluted 1:20,000, was added. Subsequently, ATP, CTP, GTP and UTP were added such that the concentration of each NTP was 0.5 mM in the final reaction mixture. Fluorescence was measured for about 1.5 hours in an iCycler iQ real-time PCR detection system (Bio-Rad Laboratories) using 490 nm excitation and 530 nm emission wavelengths. Afterwards, the reaction products were analyzed by gel electrophoresis.

T1 sequence (P0A8V2 whole entry): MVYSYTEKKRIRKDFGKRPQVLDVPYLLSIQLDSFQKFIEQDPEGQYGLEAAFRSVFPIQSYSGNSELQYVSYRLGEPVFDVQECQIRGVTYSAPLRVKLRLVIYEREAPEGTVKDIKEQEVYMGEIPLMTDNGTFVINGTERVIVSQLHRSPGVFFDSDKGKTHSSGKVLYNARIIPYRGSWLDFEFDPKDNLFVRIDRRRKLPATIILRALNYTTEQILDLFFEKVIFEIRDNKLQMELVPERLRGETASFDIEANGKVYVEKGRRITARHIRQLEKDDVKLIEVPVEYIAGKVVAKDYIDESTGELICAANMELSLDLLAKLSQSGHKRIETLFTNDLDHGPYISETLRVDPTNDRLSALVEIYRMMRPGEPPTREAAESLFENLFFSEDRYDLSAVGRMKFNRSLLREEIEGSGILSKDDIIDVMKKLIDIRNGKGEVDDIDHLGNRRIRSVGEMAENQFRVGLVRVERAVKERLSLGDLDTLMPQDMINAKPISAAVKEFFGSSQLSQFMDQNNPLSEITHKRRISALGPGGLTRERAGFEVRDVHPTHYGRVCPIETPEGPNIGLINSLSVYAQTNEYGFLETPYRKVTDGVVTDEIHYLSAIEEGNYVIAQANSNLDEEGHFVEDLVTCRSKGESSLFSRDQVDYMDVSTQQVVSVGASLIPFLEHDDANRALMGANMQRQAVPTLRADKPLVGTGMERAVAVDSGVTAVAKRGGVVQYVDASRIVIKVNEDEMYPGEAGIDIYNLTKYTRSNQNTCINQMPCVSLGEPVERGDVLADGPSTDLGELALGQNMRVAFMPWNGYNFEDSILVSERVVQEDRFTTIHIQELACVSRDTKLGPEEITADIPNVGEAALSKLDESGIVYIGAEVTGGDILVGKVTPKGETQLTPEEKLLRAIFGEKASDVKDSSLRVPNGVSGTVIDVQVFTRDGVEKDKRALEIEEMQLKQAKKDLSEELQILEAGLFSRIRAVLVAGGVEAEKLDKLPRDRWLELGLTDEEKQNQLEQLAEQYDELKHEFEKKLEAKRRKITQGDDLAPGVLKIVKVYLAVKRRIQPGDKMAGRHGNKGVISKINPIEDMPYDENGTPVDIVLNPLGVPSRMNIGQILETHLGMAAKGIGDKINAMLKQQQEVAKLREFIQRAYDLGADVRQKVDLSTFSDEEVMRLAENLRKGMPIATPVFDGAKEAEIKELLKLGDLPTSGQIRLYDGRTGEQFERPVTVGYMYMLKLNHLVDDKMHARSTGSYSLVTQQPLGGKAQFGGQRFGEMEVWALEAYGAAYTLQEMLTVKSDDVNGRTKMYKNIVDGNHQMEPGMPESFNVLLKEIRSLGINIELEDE
T1 sequence (P0A8T7 whole entry): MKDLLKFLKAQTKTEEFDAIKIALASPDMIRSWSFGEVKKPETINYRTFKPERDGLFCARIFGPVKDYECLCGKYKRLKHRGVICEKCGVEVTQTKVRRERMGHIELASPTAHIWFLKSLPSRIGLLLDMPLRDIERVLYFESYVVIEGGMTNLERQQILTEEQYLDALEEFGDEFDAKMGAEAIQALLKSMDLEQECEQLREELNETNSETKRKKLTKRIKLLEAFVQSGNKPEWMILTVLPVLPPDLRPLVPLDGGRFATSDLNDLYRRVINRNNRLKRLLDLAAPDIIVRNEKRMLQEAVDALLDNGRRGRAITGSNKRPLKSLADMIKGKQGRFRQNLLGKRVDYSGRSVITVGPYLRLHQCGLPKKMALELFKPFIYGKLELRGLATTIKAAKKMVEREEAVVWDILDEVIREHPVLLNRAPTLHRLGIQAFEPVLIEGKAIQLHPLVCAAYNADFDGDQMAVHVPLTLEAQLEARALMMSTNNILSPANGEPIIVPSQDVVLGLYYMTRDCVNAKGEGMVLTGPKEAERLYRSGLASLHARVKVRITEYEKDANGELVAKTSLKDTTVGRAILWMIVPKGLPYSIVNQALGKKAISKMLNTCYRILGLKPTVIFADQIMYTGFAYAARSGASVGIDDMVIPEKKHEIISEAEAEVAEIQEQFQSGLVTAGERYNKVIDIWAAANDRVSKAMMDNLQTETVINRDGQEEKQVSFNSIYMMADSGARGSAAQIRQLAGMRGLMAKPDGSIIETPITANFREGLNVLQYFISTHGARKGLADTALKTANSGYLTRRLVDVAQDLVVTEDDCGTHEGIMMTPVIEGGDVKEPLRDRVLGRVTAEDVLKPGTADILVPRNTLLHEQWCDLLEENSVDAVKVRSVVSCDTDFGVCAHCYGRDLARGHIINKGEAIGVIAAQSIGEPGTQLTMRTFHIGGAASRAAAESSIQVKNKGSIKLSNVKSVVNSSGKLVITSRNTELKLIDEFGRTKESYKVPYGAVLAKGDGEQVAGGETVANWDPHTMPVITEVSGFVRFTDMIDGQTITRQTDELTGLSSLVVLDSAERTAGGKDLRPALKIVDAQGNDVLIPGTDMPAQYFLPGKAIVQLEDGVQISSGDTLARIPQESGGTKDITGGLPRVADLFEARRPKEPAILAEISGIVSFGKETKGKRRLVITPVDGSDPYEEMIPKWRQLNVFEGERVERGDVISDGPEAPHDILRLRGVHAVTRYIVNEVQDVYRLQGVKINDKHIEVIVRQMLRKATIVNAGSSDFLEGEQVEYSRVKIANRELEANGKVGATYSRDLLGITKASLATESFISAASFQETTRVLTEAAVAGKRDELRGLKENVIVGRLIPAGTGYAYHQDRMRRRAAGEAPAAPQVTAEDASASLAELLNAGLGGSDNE
T1 sequence (P0A7Z4 whole entry partner): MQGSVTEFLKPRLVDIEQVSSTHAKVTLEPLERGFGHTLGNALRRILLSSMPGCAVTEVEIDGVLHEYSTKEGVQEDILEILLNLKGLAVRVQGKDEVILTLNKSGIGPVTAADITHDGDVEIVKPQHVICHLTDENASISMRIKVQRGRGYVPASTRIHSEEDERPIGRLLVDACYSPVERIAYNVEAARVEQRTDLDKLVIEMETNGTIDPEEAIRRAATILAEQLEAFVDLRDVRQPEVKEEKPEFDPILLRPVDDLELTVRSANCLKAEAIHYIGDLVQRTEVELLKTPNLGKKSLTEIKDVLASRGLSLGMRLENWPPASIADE
T1 sequence (P0A800 2-91 partner limits assumed): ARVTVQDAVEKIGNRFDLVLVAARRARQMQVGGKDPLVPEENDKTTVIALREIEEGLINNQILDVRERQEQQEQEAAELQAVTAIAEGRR
T1 sequence (P00579 whole entry partner): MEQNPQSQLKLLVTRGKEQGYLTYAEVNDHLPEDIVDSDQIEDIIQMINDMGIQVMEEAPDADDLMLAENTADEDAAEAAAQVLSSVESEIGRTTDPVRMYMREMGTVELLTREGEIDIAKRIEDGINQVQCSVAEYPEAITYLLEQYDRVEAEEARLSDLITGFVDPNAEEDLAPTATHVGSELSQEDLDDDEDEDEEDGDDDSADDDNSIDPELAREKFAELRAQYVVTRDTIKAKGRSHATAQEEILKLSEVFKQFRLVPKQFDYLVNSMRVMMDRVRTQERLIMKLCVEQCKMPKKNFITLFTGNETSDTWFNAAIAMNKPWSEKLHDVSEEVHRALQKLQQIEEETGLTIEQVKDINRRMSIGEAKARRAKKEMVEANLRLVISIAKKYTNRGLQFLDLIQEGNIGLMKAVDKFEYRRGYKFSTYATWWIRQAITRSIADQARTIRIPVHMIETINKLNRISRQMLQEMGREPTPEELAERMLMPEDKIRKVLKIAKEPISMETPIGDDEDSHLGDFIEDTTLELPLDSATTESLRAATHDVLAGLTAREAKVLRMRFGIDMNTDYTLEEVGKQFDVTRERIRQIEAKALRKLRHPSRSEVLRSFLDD

Regarding `CC[C@H](C)[C@@H]1NC(=O)CNC(=O)[C@@H]2Cc3c([nH]c4cc(O)ccc34)[S+]([O-])C[C@@H](NC(=O)CNC1=O)C(=O)N[C@@H](CC(N)=O)C(=O)N1C[C@H](O)C[C@H]1C(=O)N[C@@H]([C@@H](C)[C@@H](O)CO)C(=O)N2` (stereo in doubt) [α-amanitin], the entries for the “Inhibition of RNA polymerase activity” value in assay [1] and in assay [2] were “no inhibition” and “Inhibitory effects”, respectively. The “RNA synthesis in the presence of inhibitor” value in assay [3] was “RNA was synthesized”.
